Measurements taken from patent US6242600A, “2-piperazinone-1-acetic acid derivatives and their use” (Takeda Chemical Industries, Ltd., priority 1997, dated 2001).

System: platelet aggregation induced by ADP (platelet rich plasma)
Test: Inhibitory Effect on Platelet Aggregation in Guinea Pigs (induced by ADP)
Format: cell-based
Conditions: Cavia porcellus; guinea pig platelet rich plasma, about 400,000 platelets/μl, 37° C., ADP final concentration 1 μM, test drug added 2 minutes before ADP; read-out: Inhibition of platelet aggregation by ADP, IC50
Procedure: Blood was collected from abdominal aorta of male guinea pigs under anesthesia with pentobarbital (20 mg/kg, i.p.) using sodium citrate as an anticoagulant (final concentration: 0.315%). The sodium citrate-supplemented blood was centrifuged at 1000 g for […] to obtain platelet rich plasma (PRP), which was further centrifuged at 1000 g for 10 minutes respectively at room temperature to obtain platelet poor plasma (PPP). The number of platelet was counted at automatic platelet counter (Sysmex E2500, Toaiyo-denshi). PRP was diluted with PPP to adjust the number of platelets to be about 400,000/μl. Platelet aggregation was measured as follows, using an 8-channel aggregometer (NBS HEMA TRACER VI, Niko Bioscience Inc.): The PRP (250 μl) was incubated at 37° C. for 2 minutes, to n added 25 μl of a test drug solution. Two minutes later, 25 μl of an agent (ADP; finalconcentration: 1 μM) for causing agglutination. The effect of the test drug was shown by the inhibition rate of the maximum aggregation rate of the test group against that of the control group.

COC(=O)C[C@H]1C(=O)N(CC(=O)O)CCN1C(=O)[C@H](Cc1ccc(OC)cc1)NC(=O)C1CCN(c2ccncc2)CC1 [compound 9] showed an IC50 of 70 nM.
COC(=O)C[C@H]1C(=O)N(CC(=O)OC)CCN1C(=O)CCC(=O)N1CCN(c2ccccn2)CC1 [compound 12] showed an IC50 of 38 nM.
COC(=O)C[C@H]1C(=O)N(CC(=O)OC)CCN1C(=O)CCC(=O)N1CCN(c2ncccn2)CC1 [compound 14] showed an IC50 of 75 nM.
With COC(=O)C[C@H]1C(=O)N(CC(=O)OC(C)(C)C)CCN1C(=O)[C@H](CC(=O)N1CCN(c2ccncc2)CC1)NC(=O)OC(C)(C)C [compound 20] the IC50 was 44 nM.
In the case of COC(=O)C[C@H]1C(=O)N(CC(=O)O)CCN1C(=O)[C@H](CC(=O)N1CCN(c2ccncc2)CC1)NC(=O)OC [compound 24], the IC50 is reported as 62 nM.
For COC(=O)C[C@H]1C(=O)N(CC(=O)O)CCN1C(=O)[C@@H](CC(=O)N1CCN(c2ccncc2)CC1)NS(=O)(=O)c1ccc(OC)cc1 [compound 31], the IC50 was 60 nM.
COC(=O)C[C@H]1C(=O)N(CC(=O)O)CCN1C(=O)[C@H](CC(=O)N1CCN(c2ccncc2)CC1)NS(=O)(=O)c1ccc(OC)cc1 [compound 33] was tested, and the IC50 was 240 nM.
Molecule COC(=O)C[C@H]1C(=O)N(CC(=O)O)CCN1C(=O)[C@H](CC(=O)N1CCN(c2ccncc2)CC1)NCc1ccc(OC)cc1 [compound 36] has an IC50 of 220 nM.
Work on CN[C@H](CC(=O)N1CCN(c2ccncc2)CC1)C(=O)N1CCN(CC(=O)O)C(=O)[C@@H]1CC(=O)OC [compound 40] yielded an IC50 of 58 nM.
COC(=O)C[C@H]1C(=O)N(CC(=O)O)CCN1C(=O)[C@@H](CC(=O)N1CCN(c2ccncc2)CC1)NC(=O)OCOC(=O)C(C)(C)C [compound 43] was tested, and the IC50 was 99 nM.
